Source: PMC3214022, “Plasmodium falciparum Parasites Are Killed by a Transition State Analogue of Purine Nucleoside Phosphorylase in a Primate Animal Model” (PLoS ONE, 2011)

Assay: Weights, CBC, blood chemistry and signs of toxicity, Table S1 sheet PD-2 (infected Aotus, twice a day for seven days)
Format: in vivo, Aotus lemurinus lemurinus
Conditions: oral 10 mg/kg twice a day/7 days
Description: Laboratory bred Aotus lemurinus lemurinus monkeys (0.75–0.89 kg) were maintained as described. […] Blood samples were collected before the treatment started (t = 0), 0.05 h, 0.5 h, 1 h, 2 h, 6 h, 24 h, 48 h, and 6, 12 and 18 days after the first dose from each monkey and processed as described below. Pharmacokinetic parameters were calculated using PKSolver. For efficacy studies, Aotus monkeys were inoculated intravenously with 5×10^6 parasites of the FVO strain of P. falciparum in an approved treatment protocol. […] Parasitaemia was determined by Giemsa-stained thick blood smears prepared daily from the marginal ear vein [41]. Blood samples were collected from each monkey and transferred to tubes containing lithium heparin, centrifuged and both plasma and blood cells were frozen at −80 °C until analysis. Animals received a physical examination and blood chemistry profiles were monitored after treatment as described previously. Any monkey not responding appropriately to treatment was cured of its infection with mefloquine (40 mg kg^−1). […] The day of clearance is defined as the first of three consecutive days in which the thick blood films are parasite negative. The day of recrudescence is the first of three consecutive days of positive thick blood films after a period of clearance. Suppression is defined as a transient decrease in the parasite count post-treatment without clearance.

Nc1nc2c(CN3CC(O)C(CO)C3)c[nH]c2c(=O)[nH]1 (stereo not shown) [BCX4945, 4′-deaza-1′-aza-2′-deoxy-1′-(9-methylene)-Immucillin-G]
WEIGHT (26027 Male (ITM3), day 15): 890 g | Blood Urea Nitrogen (26027 Male (ITM3), day 18): 20.6 mg/dL | Creatine (26027 Male (ITM3), day 18): 0.5 mg/dL | Erythrocytes (26027 Male (ITM3), day 18): 4.74e+06 µL⁻¹ | Glutamate Pyruvate Transaminase (26027 Male (ITM3), day 18): 27.5 U/L | Granulocytes (%) (26027 Male (ITM3), day 18): 37% | Granulocytes (x 103/ul) (26027 Male (ITM3), day 18): 3 x 103/ul | Hematocrit (26027 Male (ITM3), day 18): 39.9% | Hemoglobin (26027 Male (ITM3), day 18): 14.1 g/dL | Leucocytes (26027 Male (ITM3), day 18): 8100 µL⁻¹ | Lymphocytes (%) (26027 Male (ITM3), day 18): 58.1% | Lymphocytes (x 103/ul) (26027 Male (ITM3), day 18): 4.7 x 103/ul | Mean Corpuscular Hemoglobin (26027 Male (ITM3), day 18): 29.9 pg | Mean Corpuscular Volume (26027 Male (ITM3), day 18): 84.3 fL | Mean Hemoglobin Content (26027 Male (ITM3), day 18): 35.4 g/dL | Mean Platelet Volume (26027 Male (ITM3), day 18): 11.7 fL | Monocytes (%) (26027 Male (ITM3), day 18): 4.9% | Monocytes (x 103/ul) (26027 Male (ITM3), day 18): 0.4 x 103/ul | Platelets (26027 Male (ITM3), day 18): 208000 µL⁻¹ | Red Cell Distribution Width (26027 Male (ITM3), day 18): 17.7% | Reticulocytes (26027 Male (ITM3), day 18): 1.9% | WEIGHT (26027 Male (ITM3), day 18): 900 g | Erythrocytes (26027 Male (ITM3), day 25): 4.04e+06 µL⁻¹ | Granulocytes (%) (26027 Male (ITM3), day 25): 17.2% | Granulocytes (x 103/ul) (26027 Male (ITM3), day 25): 2.5 x 103/ul | Hematocrit (26027 Male (ITM3), day 25): 35.7% | Hemoglobin (26027 Male (ITM3), day 25): 12.2 g/dL | Leucocytes (26027 Male (ITM3), day 25): 14500 µL⁻¹ | Lymphocytes (%) (26027 Male (ITM3), day 25): 74.8% | Lymphocytes (x 103/ul) (26027 Male (ITM3), day 25): 10.8 x 103/ul | Mean Corpuscular Hemoglobin (26027 Male (ITM3), day 25): 30.1 pg | Mean Corpuscular Volume (26027 Male (ITM3), day 25): 88.4 fL | Mean Hemoglobin Content (26027 Male (ITM3), day 25): 34 g/dL | Mean Platelet Volume (26027 Male (ITM3), day 25): 13.3 fL | Monocytes (%) (26027 Male (ITM3), day 25): 8% | Monocytes (x 103/ul) (26027 Male (ITM3), day 25): 1.2 x 103/ul | Platelets (26027 Male (ITM3), day 25): 118000 µL⁻¹ | Red Cell Distribution Width (26027 Male (ITM3), day 25): 17.3% | Reticulocytes (26027 Male (ITM3), day 25): 3.1% | WEIGHT (26027 Male (ITM3), day 25): 888 g | Blood Urea Nitrogen (26027 Male (ITM3), day -10): 18.35 mg/dL | Creatine (26027 Male (ITM3), day -10): 0.5 mg/dL | Erythrocytes (26027 Male (ITM3), day -10): 5.73e+06 µL⁻¹ | Glutamate Pyruvate Transaminase (26027 Male (ITM3), day -10): 23.9 U/L | Granulocytes (%) (26027 Male (ITM3), day -10): 15.9% | Granulocytes (x 103/ul) (26027 Male (ITM3), day -10): 1.6 x 103/ul | Hematocrit (26027 Male (ITM3), day -10): 46.1% | Hemoglobin (26027 Male (ITM3), day -10): 17.0 g/dL | Leucocytes (26027 Male (ITM3), day -10): 10200 µL⁻¹ | Lymphocytes (%) (26027 Male (ITM3), day -10): 78% | Lymphocytes (x 103/ul) (26027 Male (ITM3), day -10): 8 x 103/ul | Mean Corpuscular Hemoglobin (26027 Male (ITM3), day -10): 29.6 pg | Mean Corpuscular Volume (26027 Male (ITM3), day -10): 80.5 fL | Mean Hemoglobin Content (26027 Male (ITM3), day -10): 36.8 g/dL | Mean Platelet Volume (26027 Male (ITM3), day -10): 11.9 fL | Monocytes (%) (26027 Male (ITM3), day -10): 6.1% | Monocytes (x 103/ul) (26027 Male (ITM3), day -10): 0.6 x 103/ul | Platelets (26027 Male (ITM3), day -10): 253000 µL⁻¹ | Red Cell Distribution Width (26027 Male (ITM3), day -10): 11.7% | Reticulocytes (26027 Male (ITM3), day -10): 1.1% | WEIGHT (26027 Male (ITM3), day -10): 895 g | Blood Urea Nitrogen (26047 Female (ITM1), day 8): 18.65 mg/dL | Creatine (26047 Female (ITM1), day 8): 0.539 mg/dL | Erythrocytes (26047 Female (ITM1), day 8): 4.63e+06 µL⁻¹ | Glutamate Pyruvate Transaminase (26047 Female (ITM1), day 8): 13.2 U/L | Granulocytes (%) (26047 Female (ITM1), day 8): 10% | Granulocytes (x 103/ul) (26047 Female (ITM1), day 8): 1.3 x 103/ul | Hematocrit (26047 Female (ITM1), day 8): 36.7% | Hemoglobin (26047 Female (ITM1), day 8): 13.2 g/dL | Leucocytes (26047 Female (ITM1), day 8): 12900 µL⁻¹ | Lymphocytes (%) (26047 Female (ITM1), day 8): 74.5% | Lymphocytes (x 103/ul) (26047 Female (ITM1), day 8): 9.6 x 103/ul | Mean Corpuscular Hemoglobin (26047 Female (ITM1), day 8): 28.5 pg | Mean Corpuscular Volume (26047 Female (ITM1), day 8): 79.3 fL | Mean Hemoglobin Content (26047 Female (ITM1), day 8): 35.9 g/dL | Mean Platelet Volume (26047 Female (ITM1), day 8): 9.7 fL | Monocytes (%) (26047 Female (ITM1), day 8): 15.5% | Monocytes (x 103/ul) (26047 Female (ITM1), day 8): 2 x 103/ul | Platelets (26047 Female (ITM1), day 8): 297000 µL⁻¹ | Red Cell Distribution Width (26047 Female (ITM1), day 8): 12.5% | Reticulocytes (26047 Female (ITM1), day 8): 2.8% | WEIGHT (26047 Female (ITM1), day 8): 814 g | Blood Urea Nitrogen (26047 Female (ITM1), day 12): 10.55 mg/dL | Creatine (26047 Female (ITM1), day 12): 0.5 mg/dL | Erythrocytes (26047 Female (ITM1), day 12): 4.11e+06 µL⁻¹ | Glutamate Pyruvate Transaminase (26047 Female (ITM1), day 12): 27.3 U/L | Granulocytes (%) (26047 Female (ITM1), day 12): 21.3% | Granulocytes (x 103/ul) (26047 Female (ITM1), day 12): 3.6 x 103/ul | Hematocrit (26047 Female (ITM1), day 12): 32.7% | Hemoglobin (26047 Female (ITM1), day 12): 11.6 g/dL | Leucocytes (26047 Female (ITM1), day 12): 16800 µL⁻¹
